In data set [1] the target is CYP2C19 (Homo sapiens, UniProt P33261). The settings on record: human liver microsomes. A general note: Liver microsomes are vesicles of endoplasmic reticulum, rich in cytochrome P450 enzymes.
The target in data set [2] is T1, CYP2C8 (Homo sapiens, UniProt P10632).
T1 sequence (P10632 1-490): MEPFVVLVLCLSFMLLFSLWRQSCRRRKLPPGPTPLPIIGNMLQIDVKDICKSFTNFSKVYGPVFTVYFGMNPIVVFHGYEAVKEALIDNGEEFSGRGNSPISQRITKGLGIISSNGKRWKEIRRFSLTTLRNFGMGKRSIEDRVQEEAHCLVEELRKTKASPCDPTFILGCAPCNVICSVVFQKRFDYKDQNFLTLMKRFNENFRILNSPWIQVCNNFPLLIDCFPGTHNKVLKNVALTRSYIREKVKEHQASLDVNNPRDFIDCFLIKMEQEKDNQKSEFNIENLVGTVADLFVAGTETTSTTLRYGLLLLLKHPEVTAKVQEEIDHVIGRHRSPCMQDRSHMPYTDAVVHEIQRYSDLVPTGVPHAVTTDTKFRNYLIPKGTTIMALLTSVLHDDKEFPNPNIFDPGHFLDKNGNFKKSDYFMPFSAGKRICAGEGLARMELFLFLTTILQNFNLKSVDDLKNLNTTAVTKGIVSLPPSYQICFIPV
The settings on record: human liver microsomes.
Text: For in vitro experiments, a stock solution of C#1 in DMSO was chosen.

Sequence of CYP2C19 (P33261 whole entry): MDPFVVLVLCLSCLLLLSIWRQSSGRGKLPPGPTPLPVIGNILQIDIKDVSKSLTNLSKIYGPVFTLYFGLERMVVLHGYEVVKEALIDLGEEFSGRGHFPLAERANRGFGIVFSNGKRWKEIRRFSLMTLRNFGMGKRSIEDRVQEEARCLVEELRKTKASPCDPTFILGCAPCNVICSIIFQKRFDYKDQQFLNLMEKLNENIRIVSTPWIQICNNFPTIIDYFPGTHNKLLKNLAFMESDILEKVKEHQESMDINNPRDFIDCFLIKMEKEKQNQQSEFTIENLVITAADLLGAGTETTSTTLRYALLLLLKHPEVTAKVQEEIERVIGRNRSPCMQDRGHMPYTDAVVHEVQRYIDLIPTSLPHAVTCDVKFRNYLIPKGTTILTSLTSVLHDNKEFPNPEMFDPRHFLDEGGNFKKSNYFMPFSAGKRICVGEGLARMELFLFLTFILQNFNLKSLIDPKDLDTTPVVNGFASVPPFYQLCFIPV

In the case of `C=C(C)[C@@H]1CCC2=CC(=O)C[C@@H](C)[C@]2(C)C1` [Nootkatone], the “CYP2C19 Imax of reference inhibitor” value in data set [1] was found to be 87%.
As to `O=c1c(O)c(-c2ccc(O)c(O)c2)oc2cc(O)cc(O)c12` [Quercetin], the “CYP2C8 Imax of reference inhibitor” value in data set [2] is reported as 88%.

The values are drawn from article PMC11510805, “In Vivo Effects of a GHR Synthesis Inhibitor During Prolonged Treatment in Dogs” (Pharmaceuticals, 2024).
